Two substances from patent EP0326579B1, “IMPROVEMENT OF THE BIOCOMPATIBILITY OF SOLID SURFACES” (BIO-METRIC SYSTEMS, INC., priority 1986, dated 1988) can be followed below.

In test [1] the test system is Bovine endothelial cells. In words: Outgrowth measurement using endothelial cells from a point of origin. The format is cell-based. Particulars: treated polyvinyl chloride surface.
For test [2], the system named is Bovine endothelial cells. The test can be described thus: Attachment of endothelial cells to modified plastic surfaces (viable cell counts, trypan blue). The class given is cell-based. Conditions: treated polyvinyl chloride surface; number of viable cells attached to each piece. As to the method: B. Attachment of Bovine Endothelial Cells to Modified Plastic Surfaces. Bovine endothelial cells were collected from fetal animals 8-24" in length. Cornea, aorta and umbilical endothelial cells were harvested aseptically. Cells were grown in a 5% CO₂ incubator at 37°C in a known high glucose cell growth medium such as Dulbecco's modified Eagle's medium (described in R. Dulbecco and G. Freeman, Virology, Vol. 8:396 (1959) and J. D. Smith, G. Freeman, M. Vogt and R. Dulbecco, Virology, Vol. 12:185-196 (1960)) with 25mmole HEPES buffer, 10% bovine calf serum, and 2.5 micrograms amphotericin B/ml (the "growth media"). Once the plates, tubes or sheets were prepared; cell cultures were prepared from primary cell lines. The cells were detached from the cell culture surface with a 0.25% solution of trypsin and resuspended in the growth media. Cells were then counted using a trypan blue (0.4%) solution and a hemocytometer. Various concentrations of cells were layered on the prepared materials. Cell attachment was monitored for various time periods from 5 minutes to 14 days. Attachments were determined by at least two methods. In one, sample materials were removed from culture media and washed 2 times with sterile saline. Cell stains were then applied and total cells on the surface were counted. A second method was to trypsinize the cells off the surface with a trypsin solution and count using the trypan blue method. Representive results of the attachment and outgrowth of endothelial cells on precoated polyvinyl chloride plastic pieces are reported in Table 3. The number of viable cells attached to each piece were determined by trypan blue staining procedures.

For the substance “BBA-COL: Human placenta Type IV collagen coupled to the NOS ester of benzoylbenzoic acid”, the 7-day outgrowth in test [1] was 2.5-4.0 mm. In test [2], the 3-day cell counts is on record as 5749 and the 7-day cell counts turned out to be 21500.

In the case of “ANP-EAC-COL: Human placenta Type IV collagen coupled to ANP-EAC-NOS (photolabeled collagen)”, the 7-day outgrowth in test [1] was 1.0-3.0 mm. In test [2], this substance returned a 3-day cell counts of 14500 and a 7-day cell counts of 15833.
